This is an account of results in patent US8808742B2, “Compositions and methods for preparing and using same” (Ardea Biosciences, Inc., priority 2008, dated 2014).

Like-named read-outs stand apart in the source and are kept apart here. Bounds are passed on as bounds.

The test system of data set [1] is A375 melanoma tumors. Kind of data set: A375 melanoma xenograft, tumor growth inhibition / delay. The data set is classed as in vivo, nu/nu mice. On the procedure:
(§1) Human tumors were implanted in nu/nu mice. Compound no. 1021 was administered orally for 14 days once tumors were approximately 100 mm^3 in size. Tumor growth inhibition (TGI) was determined after 14 days of treatment as the reduction in the size of tumors in treated groups versus vehicle controls. The time to endpoint (TTE) was calculated as the time for the tumor to reach the specified endpoint volume or the last day of the study, whichever came first. Treatment outcome was determined from percent tumor growth delay (% TGD), defined as the percent increase in median TTE of treated versus vehicle-treated control mice. Animals were also monitored for regression responses. Levels of pERK in tumors and brain were determined by Western blots and correlated with plasma levels of Compound no. […] A number of tumor models were evaluated with different doses and dosing regimens. […] The effect of different dosing regimens was evaluated in A375 xenografts. […]
(§2) Tumor Growth Inhibition for the groups treated with 25 mg/kg Compound no. 1021 were calculated for the indicated tumor xenografts. Tumor Growth Inhibition was measured at the end of once daily dosing for 14 days and calculated according to: […]
Female nu/nu mice were implanted with A375 tumor cells, which were allowed to grow to 100-200 mm^3. […] Tumor Growth Inhibition was measured at the end of once daily dosing for 14 days and calculated according to: […]

The test system of data set [2] is Colo205 colon cancer tumors. Kind of data set: Colo205 colon tumor xenograft, tumor growth inhibition / delay. The data set is classed as in vivo, nu/nu mice. On the procedure:
(§3) Human tumors were implanted in nu/nu mice. Compound no. 1021 was administered orally for 14 days once tumors were approximately 100 mm^3 in size. Tumor growth inhibition (TGI) was determined after 14 days of treatment as the reduction in the size of tumors in treated groups versus vehicle controls. The time to endpoint (TTE) was calculated as the time for the tumor to reach the specified endpoint volume or the last day of the study, whichever came first. Treatment outcome was determined from percent tumor growth delay (% TGD), defined as the percent increase in median TTE of treated versus vehicle-treated control mice. Animals were also monitored for regression responses. Levels of pERK in tumors and brain were determined by Western blots and correlated with plasma levels of Compound no. 1021 for the pharmacodynamic/pharmacokinetic study. A number of tumor models were evaluated with different doses and dosing regimens. […] The effect of different dosing regimens was evaluated in A375 xenografts. Although 100 mg/kg Compound no. […] 1021. […]
as §2

In data set [3] the test system is HT29 colon cancer tumors. The data set is described as follows: HT29 colon tumor xenograft, tumor growth inhibition. In kind it is in vivo, nu/nu mice. The following applies: oral 25 mg/kg QD. As for the experimental part:
as §3, §2

The test system of data set [4] is A431 epidermoid tumors. Kind of data set: A431 epidermoid tumor xenograft, tumor growth inhibition / delay. The data set is classed as in vivo, nu/nu mice. As for the experimental part: as §3, §2
Data set [5] deals with MEK (pERK levels) in Colo205 tumors. Kind of data set: MEK inhibition (pERK Western blot) in Colo205 xenograft tumors vs plasma concentration. In kind it is in vivo, Female nu/nu mice. Particulars: Colo205 xenografts, pharmacodynamic/pharmacokinetic study. On the procedure:
as §1
(§4) Female nu/nu mice implanted with Colo205 tumor cells were given a single dose of vehicle or Compound no. […] Compound levels were determined in plasma samples and pERK levels were determined in tumor and brain samples collected at 2, 6, 12, and 24 hr post-dose. The pERK levels from Western blots were quantified using the LI-COR Odyssey, normalized to total ERK levels and compared to vehicle-treated levels to determine % MEK inhibition. […]

Data set [6] can be described thus: Single-dose capsule administration in human cancer patients, concentration-time profiles. Particulars: in vivo, oral, capsules of example 95A. As for the experimental part: Administration of the capsules described in example 95A in Human Cancer Patients.Human cancer patients were administered a single dose of the 1 mg or 10 mg capsule composition described above in example 95A. For a 2 mg dose, patients were given 2×1 mg capsules; for a 4 mg dose, patients were given 4×1 mg capsules; for a 6 mg dose, patients were given 6×1 mg capsules; for a 10 mg dose, patients were given 1×10 mg capsule; for a 20 mg dose, patients were given 2×10 mg capsules.
The concentration-time profiles were monitored and are shown in FIG. 4 and in the table below: […]

In data set [7] the test system is brain MEK activity (pERK levels). Kind of data set: Inhibition of brain MEK activity (pERK Western blot) vs plasma concentration. The data set is classed as in vivo, Female nu/nu mice. The following applies: Colo205 xenograft mice, pharmacodynamic/pharmacokinetic study. As for the experimental part:
as §1, §4
(In general: Immunoblotting shows a protein as a band on a membrane.)

Data set [8] can be described thus: Plasma concentrations in A375 xenograft mice, QD vs BID. In kind it is in vivo, Female nu/nu mice. The following applies: oral.
Data set [9] deals with phosphorylated ERK in MDA-MB-231 breast cancer cells. Kind of data set: Western blotting for phosphorylated ERK in MDA-MB-231 cells (EC50 data). The data set is classed as cell-based. Particulars: Homo sapiens, 0.5 h, 30 min compound, EGF stimulation, read-out: MDA pERK ELISA EC50. On the procedure: Effects of compounds in the cell were determined by Western blotting for phosphorylated ERK. MDA-MB-231 breast cancer cells were plated in a 48 well plate at 20,000 cells per well and grown in a 37° humidified CO2 incubator. The following day, the growth media (DMEM+10% fetal bovine serum) was removed and replaced with starve media (DMEM+0.1% fetal bovine serum). Cells were incubated in the starve media for sixteen hours and then treated with a range of compound concentrations for thirty minutes. After incubation with compound, cells were stimulated with 100 ng/mlEGF for five minutes. The cells were then lysed and analyzed by Western blot using a monoclonal antibody raised to phosphorylated ERK. The signal was amplified using a secondary antibody conjugated to a near-IR dye and detected on a Licor Odyssey scanner.

[10] abbreviates: column 2, no head, 2nd regimen of b975: 25 mg/kg BID.

A word on the Cmax: it is the highest concentration seen after dosing. With `COc1cc(F)c(F)c(Nc2ccc(I)cc2F)c1NS(=O)(=O)C1(C[C@H](O)CO)CC1` [Compound no. 1021], the “% TGD, significance” value in data set [1] (25 or 50 mg/kg QD), in data set [2] (25 or 50 mg/kg QD) and in data set [4] (25 or 50 mg/kg QD) was “statistically significant” each time. Further, the “TGI, significance” value in data set [1] (oral 25 mg/kg QD), in [2] (oral 25 mg/kg QD), in [3] and in data set [4] (oral 25 mg/kg QD) was “Statistically significant” in each case. The “pERK formation in tumors” value in data set [5] is recorded as “inhibition of pERK formation”. Moreover, the concentration at 12 h in data set [6] (2 mg, Dose 2 mg, Day 1, read-out: C12 hr) is 0.0378 ng/mL; in data set [6] (2 mg, Dose 2 mg, Day 35, read-out: C12 hr), 0.0756 ng/mL; in [6] (4 mg, Dose 4 mg, Day 1, read-out: C12 hr), 0.134 ng/mL; in data set [6] (4 mg, Dose 4 mg, Day 35, read-out: C12 hr), 0.31 ng/mL; in data set [6] (10 mg, Dose 10 mg, Day 35, read-out: C12 hr), 1.01 ng/mL; in data set [6] (20 mg, Dose 20 mg, Day 35, read-out: C12 hr), 2.19 ng/mL. Further, the “pERK inhibition in brain” value in [7] is “minimal inhibition”. In addition, the “Cmin Free Fraction” value came to 0.117 ng/mL in [8] (column 1, no head, 1st regimen of b975: 50 mg/kg QD); 2.48 ng/mL in [8] (setting [10]); 0.059 ng/mL in data set [8] (column 3, no head, 3rd regimen of b975: printed 50 mg/kg QD); 0.986 ng/mL in data set [8] (column 4, no head, 4th regimen of b975: 12.5 mg/kg BID). The molecule also displayed a Cmax in data set [8] (setting [10]) of 10200 ng/mL.

What is called EC50 is the concentration needed to bring the measured effect to its halfway point. In the case of `O=S(=O)(Nc1ccc(F)c(F)c1Nc1ccc(-c2cn[nH]c2)cc1F)C1CC1` [compound 0497618], the EC50 in data set [9] is above 0.2 µM.

Take `Cn1cc(-c2ccc(Nc3c(NS(=O)(=O)C4CC4)ccc(F)c3F)c(F)c2)cn1` [compound 0497620]: the EC50 in [9] was above 0.2 µM.

Consider `O=S(=O)(Nc1ccc(F)c(F)c1Nc1ccc(-c2cc[nH]n2)cc1F)C1CC1` [compound 0497654], for which, in [9], the EC50 lay in the range of 0.1 to 0.2 µM.

As for `O=S(=O)(Nc1ccc(F)c(F)c1Nc1ccc(-c2ccncc2)cc1F)C1CC1` [compound 0497688], the EC50 in data set [9] was above 0.2 µM.

As to `O=S(=O)(Nc1ccc(F)c(F)c1Nc1ccc(-c2cccnc2)cc1F)C1CC1` [compound 0497689], the EC50 in data set [9] is above 0.2 µM.

As to `O=S(=O)(Nc1ccc(F)c(F)c1Nc1ccc(-c2ccccc2)cc1F)C1CC1` [compound 0497692], the 50% effective concentration (EC50) in [9] is above 0.2 µM.

Regarding `CC(=O)c1cccc(-c2ccc(Nc3c(NS(=O)(=O)C4CC4)ccc(F)c3F)c(F)c2)c1` [compound 0499266], the EC50 in [9] is above 0.2 µM.

In the case of `CS(=O)(=O)Nc1ccc(-c2ccc(Nc3c(NS(=O)(=O)C4CC4)ccc(F)c3F)c(F)c2)cc1` [compound 0499271], the EC50 in data set [9] was above 0.2 µM.

`O=S(=O)(Nc1ccc(F)c(F)c1Nc1ccc(I)cc1F)c1ccc(-c2nsc(Cl)n2)s1` [compound 0530701]: the EC50 in data set [9] was 0.1 to 0.2 µM.

In the case of `O=S(=O)(Nc1ccc(F)c(F)c1Nc1ccc(I)cc1F)C1CCNCC1` [compound 0561599], the EC50 in [9] lay within 0.015 to 0.1 µM.

On to `COC(=O)c1ccc(S(=O)(=O)Nc2ccc(F)c(F)c2Nc2ccc(I)cc2F)n1C` [compound 0561608], for which the EC50 in data set [9] is 0.015 to 0.1 µM.

With `COC(=O)c1sccc1S(=O)(=O)Nc1ccc(F)c(F)c1Nc1ccc(I)cc1F` [compound 0620926], the concentration giving a half-maximal response (EC50) in data set [9] was above 0.2 µM.

On to `CNCCS(=O)(=O)Nc1ccc(F)c(F)c1Nc1ccc(I)cc1F` [compound 0621002], for which the EC50 in data set [9] fell in the range of 0.015 to 0.1 µM.

In the case of `CN(C)CCNCCS(=O)(=O)Nc1ccc(F)c(F)c1Nc1ccc(I)cc1F` [compound 0621016], the EC50 in [9] was 0.015 to 0.1 µM.

With `Cn1cc(S(=O)(=O)Nc2ccc(F)c(F)c2Nc2ccc(I)cc2F)c(C(F)(F)F)n1` [compound 0621026], in data set [9], the EC50 was in the range of 0.1 to 0.2 µM.

In the case of `CCN(C)CCS(=O)(=O)Nc1ccc(F)c(F)c1Nc1ccc(I)cc1F` [compound 0621029], in [9], the EC50 was 0.1 to 0.2 µM.
